Test results taken from US20180289843A1, “COATING FOR METAL NANOPARTICLES” (AGENCY FOR SCIENCE, TECHNOLOGY AND RESEARCH, priority 2015, published 2018).
Where a SMILES comes first, the peptide text is derived from it. [ ]: non-standard residue; d: D form. The star is where a group is joined. pS = N[C@@H](COP(=O)(O)O)C(=O)O; Thr(ol) = C[C@@H](O)[C@H](N)CO; X1 = O=C(COP(=O)(O)O)*

Legend:
[1] = Normalized aggregation parameter (NAP) by UV-visible absorbance; assay type: physicochemical; settings: single ligand shell
Experimental: UV-visible spectra were recorded at room temperature using a Molecular Probes (Oregon, USA) Spectramax 384-well spectrometer, using a 1 cm path length quartz cuvette, and a fixed slit width of 2 nrn. The spectrometer was calibrated daily using the machine's ‘Auto-Calibrate’ air calibration.
To allow the comparison of results from different ligand exchange experiments, the aggregation parameter (AP) was defined as follows: […]
A460 nm and A300 nm are absorbance values of solutions of nanoparticles at 460 nm and 300 nm, respectively. The empiric wavelength of 460 nm has been chosen to reflect the aggregated state of the nanoparticles. Aref460 nm and Aref300 nm are absorbance values of water at 460 nm and 300 nm. To allow comparison of results obtained with different ligand shells, this primary aggregation parameter was then normalized by dividing the aggregation parameter values of each experiment by the initial aggregation parameter value of the same experiment before the stability test. This provides a Normalized Aggregation Parameter (NAP). […] An increase of the NAP indicates the instability and eventually aggregation of the nanoparticles.

[2] = Electrolyte-induced aggregation stability test (NaCl, PBS) followed by UV-visible spectrometry; assay type: physicochemical; settings: prepared in PBS and Tween 20, two days
Experimental: The stability of the nanoparticles was followed by UV-visible spectrometry. A decrease of absorbance indicates the aggregation of the nanoparticles. […] The four single peptide ligand shells were evaluated for their potential to stabilize the iron oxide nanoparticles against electrolyte-induced aggregation. The nanoparticles were mixing with a range of concentration of NaCl (0.1 mM to 1 M) at room temperature. The stability of the nanoparticles was followed by UV-visible spectrophotometry and the normalized aggregation parameters were determined. […] The aggregation of all nanoparticles were observed also in PBS buffer (with 100 mM NaCl) after few hours. […] This represents a promising result since the utilization of the peptide coated iron nanoparticles in vitro and in vivo are performed at 37° C. All the mixed peptide ligand shells providing sufficient yield of nanoparticles were evaluated for electrolyte-induced aggregation stability by mixing the nanoparticles with a range of concentration of NaCl (0.1 mM to 1 M) at room temperature. […] This represents again a promising results since the utilisation of the peptide coated iron nanoparticles in vitro and in vivo are performed at 37° C.

[3] = prepared using PBS and Tween 20

| NAP (normalized aggregation parameter) ([1]; prepared using water only) | Compound | further results |
| --- | --- | --- |
| (1 ± 0.02) | PO3H2-O-CH2-CO-Ser(PO3H2)-NH-PEG4-OH [Peptide S7] | NAP (normalized aggregation parameter) [1, 3]: 1.33 ± 0.08 |
| (1 ± 0.01) | PO3H2-O-CH2-CO-Ser(PO3H2)-NH-PEG4-ol [Peptide S8] |  |
| (1.23 ± 0.13) | H-[pS]VVV[Thr(ol)] [Peptide S13] | NAP (normalized aggregation parameter) [1, 3]: 2.23 ± 0.34 |
|  | CC(C)[C@H](NC(=O)[C@H](COP(=O)(O)O)NC(=O)COP(=O)(O)O)C(=O)N[C@H](C(=O)N[C@H](C(=O)N[C@H](CO)[C@@H](C)O)C(C)C)C(C)C [Peptide S14, PO3H2-O-CH2-CO-Ser(PO3H2)-Val-Val-Val-Thr-ol] (X1-[pS]VVV[Thr(ol)]) | Stability in PBS buffer at 37° C. ([2]; 37° C.): same high stability; Stability in 1 M NaCl ([2]; room temperature): high stability; Stability in PBS buffer at room temperature ([2]; room temperature): high stability |
| (1.31 ± 0.04) | O=P(O)(O)SCCCCCCCCCCCOCCOCCOCCOCCOCCOCCO [Ligand L2, (HO)2-PO-S-C11-EG6-OH] |  |
| (1.21 ± 0.21) | PO3H2-O-CH2-CO-Gly-NH-PEG4-OH [Peptide S5] |  |

| Compound | NAP (normalized aggregation parameter) ([1]; prepared using water only) | further results |
| --- | --- | --- |
| O=P(O)(O)SCCCCCCCCCCCOCCOCCOCCO [Ligand L1, (HO)2-PO-S-C11-EG3-OH] | (1.25 ± 0.08) |  |
